Measurements taken from US20090221829A1 (priority 2005, published 2009).
Where two headings read alike, the source gives them in different places.

Tests used:
[1] = test system: Candida albicans(KCTC 1940), Aspergillus niger (ATCC 9642) and Saccharomyces cerevisiae; test: Relative antifungal activity by agar dilution method (vs Miconazole); assay type: cell-based;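 also: scores 5 to 7 mean a lower fungicidal concentration than Miconazole so higher is more potent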
Source text: Novel compounds represented by the above chemical formula (I), and the relative activities in accordance with the agar dilution method in Sabouraud dextrose agar media, Czapek agar media and Yeast Extract-Peptone-Dextrose agar media for Candida albicans(KCTC 1940), Aspergillus niger (ATCC 9642) and Saccharomyces cerevisiae are described respectively in following Table 1.

various kinds of Candida = test: MIC (Minimal Inhibitory Concentration) data; assay type: cell-based
[2] = test system: cultured lung cells derived from chinese hamster; test: Chromosome aberration test; assay type: cell-based
Micronucleus test = assay type: in vivo
[3] = Oral toxicity test (general symptoms, weight change, lethal case); assay type: in vivo, rats (SD); conditions: for LD50: SD, rat, in vivo, 1000 mg/kg, rats, oral, read-out: Acute toxicity LD50; for general symptom / lethal case / weight change: oral, 1,000 mg/kg, suspended in propylene glycol, SD rats
Procedure: Meanwhile, the toxicity test of the compound in table II of the present invention was performed using […]. The compound was suspended in propylene glycol. The resulting suspension was medicated respectively on 6 female rats and 5 male rats (SD) of which age are 5 weeks, via oral after 12 hours starvation. The general symptoms, weight change and lethal case of the above rats were investigated.
In cases of the tests of the compounds (Compound No. 12, 119, 134, 148, 150)(delivery of 1,000 mg/kg), the general symptom and weight change were normal and the lethal case was not observed.

salmonella typhimurium = test: Bacterial reverse mutation test (Ames test); assay type: cell-based
[4] = target: sterol-24-methyl transferase (Candida albicans, UniProt O74198); assay type: biochemical; conditions: in vitro, read-out: Relative Activity (IC50 class)
sterol-24-methyl transferase, sequence (O74198 whole entry): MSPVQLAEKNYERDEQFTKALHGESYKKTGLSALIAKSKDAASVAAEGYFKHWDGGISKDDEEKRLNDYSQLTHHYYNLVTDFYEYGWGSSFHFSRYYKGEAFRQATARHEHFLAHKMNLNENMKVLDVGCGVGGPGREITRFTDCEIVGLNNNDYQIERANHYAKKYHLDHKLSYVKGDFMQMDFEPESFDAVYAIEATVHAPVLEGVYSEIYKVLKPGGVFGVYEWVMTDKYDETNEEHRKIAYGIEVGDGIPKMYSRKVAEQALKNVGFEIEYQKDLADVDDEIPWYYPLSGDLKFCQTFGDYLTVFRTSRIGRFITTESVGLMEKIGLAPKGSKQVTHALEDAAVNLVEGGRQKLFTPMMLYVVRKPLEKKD
Source text: Moreover, the relative activity for sterol-24-methyl transferase of the above compound in Table 11 is described in Table 13.

[5] = agar dilution method, fungicidal concentration relative to control drug Miconazole (=4)
[6] = cultured lung cells derived from chinese hamster
[7] = C. albicans ATCC 11651, unit assumed
[8] = C. albicans ATCC 28838, unit assumed
[9] = C. albicans IFO 1385, unit assumed
[10] = C. albicans OY-003, unit assumed
[11] = C. albicans OY-019, unit assumed
[12] = C. krusei (KCTC7273), unit assumed
[13] = antifungal activity relative to Miconazole, agar dilution

Row | SMILES | Relative Activity [1, 5] | Genetic toxicity Nucleus test (Micronucleus test; male ICR mice) | LD50 ([3]; female) [mg/kg] | LD50 ([3]; male) [mg/kg] | general symptom [3] | lethal case [3] | weight change [3] | Genetic toxicity AMES test (salmonella typhimurium) | bacterial reverse mutation test (Ames test) result (salmonella typhimurium) | MIC (various kinds of Candida; [7]) [µg/mL] | MIC (various kinds of Candida; [8]) [µg/mL] | MIC (various kinds of Candida; [9]) [µg/mL] | MIC (various kinds of Candida; [10]) [µg/mL] | MIC (various kinds of Candida; [11]) [µg/mL] | MIC (various kinds of Candida; C. albicans U.K, unit assumed) [µg/mL] | MIC (various kinds of Candida; C. glabrata, unit assumed) [µg/mL] | MIC (various kinds of Candida; C. glulliermondi, unit assumed) [µg/mL] | MIC (various kinds of Candida; [12]) [µg/mL] | MIC (various kinds of Candida; C. parapsilosis, unit assumed) [µg/mL] | Genetic toxicity Chromosome abmormality test [2] | further results
1 | CCCCCCCCCCCC1=[N+](Cc2ccc(C(C)(C)C)cc2)CCc2cc(NC)c(OC)cc21 | 1 | negative | > 1500 | > 2500 | normal | not observed | normal | negative | negative |  |  |  |  |  |  |  |  |  |  |  | MIC (various kinds of Candida; C. glabrata): 3.125; MIC (various kinds of Candida; C. glulliermondi): 3.125; Genetic toxicity Chromosome abmormality test [2, 6]: negative; chromosome aberration test result [2, 6]: negative; micronucleus test result (Micronucleus test; male ICR mice): negative
2 | CCCCCCCCCCCC1=[N+](Cc2ccccc2F)CCc2cc(OC)c(OC)cc21.[Cl-] [Compound No. 12, 1-n-undecyl-2-(2-fluorophenyl)methyl-3,4-dihydro-6,7-dimethoxyisoquinolinium chloride] | 2 | negative | > 1000 | > 1500 | normal | not observed | normal | negative | negative | 1.56 | 1.56 | 3.12 | 1.56 | 3.12 | 1.56 | 1.56 | 1.56 | 6.25 | 1.56 | negative | chromosome aberration test result [2]: negative; micronucleus test result (Micronucleus test; mouse, in vivo): negative
3 | CCCCCCCCCCCC1=[N+](Cc2ccc(C(C)(C)C)cc2)CCc2cc3c(cc21)oc(=O)n3C.[Br-] [Compound No. 115, 7,8-dihydro-1-methyl-6-(4-t-butylphenyl)methyl-5-undecyloxazolo[4,5-g]isoquinolinium-2 (1H)-one bromide] | 2 |  |  |  |  |  |  |  |  |  |  |  |  |  |  |  |  |  |  |  | IC50 [4]: 5 to 50 µM
4 | CCCCCCCCCCCC1=[N+](c2ccc(C(C)(C)C)cc2)CCc2cc(CNC(=O)OCC)ccc21.[Br-] [Compound No. 118, ethyl 3,4-dihydro-2-(4-t-butylphenyl)-1-undecylisoquinolinium-6-ylmethylcabamate bromide] | 2 |  |  |  |  |  |  |  |  |  |  |  |  |  |  |  |  |  |  |  | IC50 [4]: 5 to 50 µM
5 | CCCCCCCCCCCC1=[N+](Cc2ccc(NC(=O)OC(C)(C)C)cc2)CCc2cc(OC)c(OC)cc21.[Cl-] [Compound No. 120, 2-(4-t-butylalcoholcarbonylaminophenyl)methyl-3,4-dihydro-6,7-dimethoxy-1-undecylisoquinolinium chloride] |  |  |  |  |  |  |  |  |  | 1.56 | 1.56 | 3.12 | 1.56 | 3.12 | 1.56 | 6.25 | 3.12 | 1.56 | 3.12 |  | IC50 [4]: < 5 µM
6 | CCCCCCCCCCCC1=[N+](Cc2ccc(N)cc2)CCc2cc(OC)c(OC)cc21.Cl.[Cl-] [Compound No. 121, 3,4-dihydro-6,7-dimethoxy-2-(4-ammoniumphenyl)methyl-1-undecylisoquinolinium dichloride] | 2 |  |  |  |  |  |  |  |  | 3.12 | 0.78 | 1.56 | 3.12 | 3.12 | 3.12 | 1.56 | 0.78 | 1.56 | 1.56 |  | IC50 [4]: 5 to 50 µM
7 | CCCCCCCCOc1c(C[N+]2=C(CCc3ccc(C(C)(C)C)cc3)c3cc(OC)c(OC)cc3CC2)cccc1OC [Compound No. 134, 1-(2-(4-t-butylphenyl))ethyl-2-(2-octyloxy-3-methoxyphenyl)methyl-3,4-dihydro-6,7-dimethoxy isoquinolinium chloride] | 1 | negative | > 1000 | > 1200 | normal | not observed | normal | negative | negative | 3.12 | 1.56 | 3.12 | 1.56 | 1.56 | 1.56 | 3.12 | 1.56 | 3.12 | 6.25 | negative | chromosome aberration test result [2]: negative; micronucleus test result (Micronucleus test; mouse, in vivo): negative
8 | CCCCCCCCOc1c(C[n+]2ccc3cc(OC)c(OC)cc3c2CCc2ccc(C(C)(C)C)cc2)cccc1OC [Compound No. 148, 1-(2-(4-t-butylphenyl))ethyl-2-(2-octyloxy)-3-dimethoxyphenyl)methyl-6,7-dimethoxyisoquinolinium chloride] |  | negative | > 1200 | > 1500 | normal | not observed | normal | negative | negative | 1.56 | 1.56 | 1.56 | 1.56 | 1.56 | 1.56 | 3.12 | 1.56 | 1.56 | 3.12 | negative | Relative Activity [1, 13]: 1; MIC (various kinds of Candida; C. albicnas ATCC 10231, unit assumed): 0.78 µg/mL; chromosome aberration test result [2]: negative; micronucleus test result (Micronucleus test; mouse, in vivo): negative
9 | COc1cc2cc[n+](Cc3cccc(OC)c3OCc3c(F)cccc3Cl)c(CCc3ccc(C(C)(C)C)cc3)c2cc1OC [Compound No. 150, 1-(2-(4-t-butylphenyl))ethyl-2-(2-(2-chloro-6-fluorobenzyloxy)-3-methoxyphenyl)methyl-6,7-dimethoxyisoquinolinium chloride] |  | negative | > 1500 | > 2000 | normal | not observed | normal | negative | negative | 1.56 | 1.56 | 6.25 | 0.78 | 1.56 | 0.78 | 12.5 | 1.6 | 1.56 | 12.5 | negative | Relative Activity [1, 13]: 1; chromosome aberration test result [2]: negative; micronucleus test result (Micronucleus test; mouse, in vivo): negative
